One assay has as its system hog kidney renin. Briefly: Hog renin inhibition. The assay is classed as biochemical. To be noted: pH 7.3, read-out: I50 (concentration of peptide inhibitor necessary to produce 50% inhibition of renin activity). As to the method: An assay was carried out in order to determine the inhibitory potency of the peptides of the present invention. The assay measured the inhibition of hog kidney renin, and was in accordance with the procedure described in Rich et al., J. Med. Chem. 23:27, 1980, except that a pH of 7.3 was used. The results of the assay, illustrated in the table below, are expressed as I50 values, which refers to the concentration of peptide inhibitor necessary to produce 50% inhibition of renin activity. This I50 value is obtained typically by plotting data from four inhibitor concentrations.

Another assay addresses T1, human kidney renin (Homo sapiens, UniProt P00797).
T1 construct: human kidney renin purified as described in Bangham; from tissue; host or cells: human kidney
T1 sequence (P00797 67-406): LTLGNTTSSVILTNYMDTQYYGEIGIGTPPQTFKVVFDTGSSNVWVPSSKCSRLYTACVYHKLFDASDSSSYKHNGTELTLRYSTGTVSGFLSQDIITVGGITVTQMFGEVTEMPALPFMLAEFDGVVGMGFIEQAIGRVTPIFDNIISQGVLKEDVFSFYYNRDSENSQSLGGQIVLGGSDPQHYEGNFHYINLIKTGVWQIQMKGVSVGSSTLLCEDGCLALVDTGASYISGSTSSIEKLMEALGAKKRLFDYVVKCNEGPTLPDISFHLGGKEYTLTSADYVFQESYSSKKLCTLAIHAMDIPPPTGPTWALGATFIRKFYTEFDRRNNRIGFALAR
Briefly: Human renin inhibition. The assay is classed as biochemical. The note with it: purified human kidney renin; read-out: KI (dissociation constant of the inhibited enzyme-inhibitor complex). As to the method:
An assay was carried out in order to determine the inhibitory potency of the peptides of the present invention. The assay measured the inhibition of human kidney renin purified as described in Bangham, D. R., Robertson, I., Robinson, J. I. S., Robinson, C. J., and Tree, M., Clinical Science and Molecular Medicine, 48 (Supp. 2): 136s-159s (1975), and further purified by affinity chromatography on pepstatin-aminohexyl-Sepharase as described in Poe, M., Wu., J. K., Florance, J. R., Radkey, J. A., Bennett, C. D., and Hoagsteen, K., J. Biol. Chem. (1982, in press). The assay was also in accordance with Poe et al. cited above. Results are expressed as KI values, which refer to the dissociation constant of the inhibited enzyme-inhibitor complex. This KI value was obtained as described above. […]

The test system of the next assay is nephrectomized rats. To be noted: after the injection of hog renin into nephrectomized rats; Gross et al. 1971; cited from earlier work.

This is an account of results in patent US4743584A, “C-terminal amide cyclic renin inhibitors containing peptide isosteres” (Merck & Co., Inc., priority 1986, dated 1988).

Positions of bridges follow the written chain, without caps; N, C: chain ends. Residues, ends and D or L forms follow the SMILES beside them. *: point of attachment. Boc = CC(C)(C)OC(=O)*

Take `CC(C)C[C@@H]1NC(=O)[C@@H](NC(=O)[C@H](Cc2ccccc2)NC(=O)[C@@H]2CCCN2C(=O)[C@H](Cc2c[nH]cn2)NC(=O)[C@@H]2CCCN2C(=O)OC(C)(C)C)CCCCNC(=O)[C@H](Cc2ccccc2)NC(=O)[C@H](C(C)C)NC(=O)[C@H](CC(C)C)NC1=O` [drawing 67] (Boc-PHPFKLLVF; lactam 5-C): the IC50 in the assay with hog kidney renin stood at 1000 µM. With `CC(C)[C@@H]1NC(=O)[C@H](Cc2ccccc2)NC(=O)[C@H](Cc2ccccc2)NC(=O)[C@@H](NC(=O)[C@H](Cc2ccccc2)NC(=O)[C@@H]2CCCN2C(=O)[C@H](Cc2c[nH]cn2)NC(=O)[C@@H]2CCCN2)CCCCNC(=O)[C@H](Cc2ccccc2)NC1=O` (H-PHPFKFFVF; lactam 5-C), the inhibition constant Ki on human kidney renin is 33 µM. The same measure, in the same setting: the value for `CC(C)C[C@@H]1NC(=O)[C@@H](NC(=O)[C@H](Cc2ccccc2)NC(=O)[C@@H]2CCCN2C(=O)[C@H](Cc2c[nH]cn2)NC(=O)[C@@H]2CCCN2C(=O)OC(C)(C)C)CCCCNC(=O)[C@H](Cc2ccccc2)NC(=O)[C@H](C(C)C)NC(=O)[C@H](CC(C)C)NC1=O` [drawing 69] (Boc-PHPFKLLVF; lactam 5-C) was 6.4 µM.

Consider Pepstatin, for which, in the assay on nephrectomized rats, the “blood pressure in vivo” value is listed as “reduce blood pressure”.
